The values that follow come from the supplement of paper PMC12420376.

Assay [1] deals with KURAMOCHI
Kind of assay: drug sensitivity score (DSS2) on cancer cell count; higher = more sensitive; extreme values may be limits of the assay. The note with it: 72 h. The method in brief: (§1)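 Ovarian cancer cells were cultured either alone or directly mixed 1:1 with lung or skin fibroblasts and plated onto 384-well plates acoustically pre-spotted with 528 approved and investigational compounds at 5 concentrations for 72 h of treatment. After fixation, cells were immunostained for CK8/18 with Hoechst and imaged at 10× across 4 fields to count cancer cells. Responses were fitted with 4-parameter logistic curves, and from these fits a drug sensitivity score was derived in Breeze, with screen quality assessed by Z'.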

The test system of assay [2] is OVCAR8. The assay is described as above. The note with it: 72 h. The method in brief: as §1
The mark [3] stands for this setting: co-cultured fibroblast: BJHTERT.
[4] abbreviates: co-cultured fibroblast: none (monoculture).

As for `O=C(O)CNC(=O)c1c(O)c2ccccc2n(Cc2ccccc2)c1=O` [IOX-2], the drug sensitivity score in assay [1] (setting [3]) amounted to 0.4 DSS; in assay [1] (co-cultured fibroblast: WI38) it was 0 DSS; in assay [1] (setting [4]) it was 1.3 DSS; in assay [2] (setting [3]), 0 DSS; in assay [2] (co-cultured fibroblast: WI38) it was 0 DSS; in assay [2] (setting [4]), 0.5 DSS.

As to `CC(C)(O)CC(=O)NCCn1ccc2ncnc(Nc3ccc(Oc4cccc(C(F)(F)F)c4)c(Cl)c3)c21` [TAK-285], the drug sensitivity score in assay [1] (setting [3]) stood at 5.2 DSS; in assay [1] (co-cultured fibroblast: WI38) it was 1.6 DSS; in assay [1] (setting [4]), 0.6 DSS; in assay [2] (setting [3]) it was 0.2 DSS; in assay [2] (co-cultured fibroblast: WI38), 0 DSS; in assay [2] (setting [4]), 1.2 DSS.

As to `CCN1C(=O)CNc2ncc(-c3ccc(-c4nc[nH]n4)nc3C)nc21` [CC-115], the drug sensitivity score is 6.9 DSS in assay [1] (setting [3]); 5.7 DSS in assay [1] (co-cultured fibroblast: WI38); 15.1 DSS in assay [1] (setting [4]); 20.1 DSS in assay [2] (setting [3]); 4.8 DSS in assay [2] (co-cultured fibroblast: WI38); 8.7 DSS in assay [2] (setting [4]).

In the case of `COc1cccc(-c2ccc(NC(=O)C3=C(C(=O)O)CCC3)c(F)c2)c1` [Vidofludimus], the drug sensitivity score was found to be 1.5 DSS in assay [1] (setting [3]); 0.4 DSS in assay [1] (co-cultured fibroblast: WI38); 1.9 DSS in assay [1] (setting [4]); 0 DSS in assay [2] (setting [3]); 1.6 DSS in assay [2] (co-cultured fibroblast: WI38); 2 DSS in assay [2] (setting [4]).

For the molecule `CN(C)CCOc1ccc(/C(=C(/CCCl)c2ccccc2)c2ccccc2)cc1` [Toremifene], the drug sensitivity score in assay [1] (setting [3]) was 2.1 DSS; in assay [1] (co-cultured fibroblast: WI38), 0.8 DSS; in assay [1] (setting [4]) it was 2.3 DSS; in assay [2] (setting [3]), 3.2 DSS; in assay [2] (co-cultured fibroblast: WI38) it was 0 DSS; in assay [2] (setting [4]) it was 3.5 DSS.

Regarding `N[C@@H]1CCCN(c2c(/C=C3\SC(=O)NC3=O)cccc2-c2ccccc2)C1` [AZD1208], the drug sensitivity score in assay [1] (setting [3]) came out at 0 DSS; in assay [1] (co-cultured fibroblast: WI38) it was 1.7 DSS; in assay [1] (setting [4]), 1.3 DSS; in assay [2] (setting [3]), 0 DSS; in assay [2] (co-cultured fibroblast: WI38) it was 0 DSS; in assay [2] (setting [4]) it was 1.8 DSS.

With `COc1cc2c(NC3CCN(C(C)C)CC3)nc(C3CCCCC3)nc2cc1OCCCN1CCCC1` [UNC0638], the drug sensitivity score was determined as 4.4 DSS in assay [1] (setting [3]); 1.8 DSS in assay [1] (co-cultured fibroblast: WI38); 0 DSS in assay [1] (setting [4]); 7.1 DSS in assay [2] (setting [3]); 0 DSS in assay [2] (co-cultured fibroblast: WI38); 0.1 DSS in assay [2] (setting [4]).

Turning to `NC(=O)/C(=C/n1cnc(-c2cc(C(F)(F)F)cc(C(F)(F)F)c2)n1)c1cncnc1` [Eltanexor], the drug sensitivity score was 20 DSS in assay [1] (setting [3]); 20.8 DSS in assay [1] (co-cultured fibroblast: WI38); 26.5 DSS in assay [1] (setting [4]); 26.7 DSS in assay [2] (setting [3]); 24.4 DSS in assay [2] (co-cultured fibroblast: WI38); 26.8 DSS in assay [2] (setting [4]).

Turning to `C=CC[C@@H]1/C=C(\C)C[C@H](C)C[C@H](OC)[C@H]2O[C@@](O)(C(=O)C(=O)N3CCCC[C@H]3C(=O)O[C@H](/C(C)=C/[C@@H]3CC[C@@H](O)[C@H](OC)C3)[C@H](C)[C@@H](O)CC1=O)[C@H](C)C[C@@H]2OC` [Tacrolimus], the drug sensitivity score in assay [1] (setting [3]) is 1 DSS; in assay [1] (co-cultured fibroblast: WI38), 1 DSS; in assay [1] (setting [4]) it was 18.5 DSS; in assay [2] (setting [3]), 0.8 DSS; in assay [2] (co-cultured fibroblast: WI38), 0 DSS; in assay [2] (setting [4]) it was 3.1 DSS.

Turning to `Cc1ccc(NC(=O)c2ccc(CN3CCN(C)CC3)cc2)cc1Nc1nc(-c2cccnc2)cs1` [Masitinib], the drug sensitivity score in assay [1] (setting [3]) was determined as 2 DSS; in assay [1] (co-cultured fibroblast: WI38), 1.6 DSS; in assay [1] (setting [4]), 0 DSS; in assay [2] (setting [3]), 3.9 DSS; in assay [2] (co-cultured fibroblast: WI38), 0.2 DSS; in assay [2] (setting [4]), 0.2 DSS.

As for `Oc1ccc2c(c1)CC[C@H](c1ccccc1)[C@@H]2c1ccc(OCCN2CCCC2)cc1` [Lasofoxifene], the drug sensitivity score in assay [1] (setting [3]) is 0 DSS; in assay [1] (co-cultured fibroblast: WI38), 0 DSS; in assay [1] (setting [4]), 0 DSS; in assay [2] (setting [3]) it was 0 DSS; in assay [2] (co-cultured fibroblast: WI38) it was 5.5 DSS; in assay [2] (setting [4]) it was 0 DSS.

As to `Cc1ccc(NC(=O)c2ccc(CN3CCN(C)CC3)cc2)cc1Nc1nccc(-c2cccnc2)n1` [Imatinib], the values for the drug sensitivity score in assay [2] (setting [3]), in assay [2] (co-cultured fibroblast: WI38) and in assay [2] (setting [4]) were 2 DSS, 7.3 DSS and 1.4 DSS, respectively.

Regarding `Nc1ccn([C@@H]2O[C@H](CO)[C@@H](O)[C@@H]2O)c(=O)n1` [Cytarabine], the values for the drug sensitivity score in assay [2] (setting [3]), in assay [2] (co-cultured fibroblast: WI38) and in assay [2] (setting [4]) were 20.1 DSS, 18.3 DSS and 25.2 DSS, respectively.

Take `CC[C@H](CO)Nc1nc(NCc2ccccc2)c2ncn(C(C)C)c2n1` [Seliciclib]: the drug sensitivity score amounted to 4.9 DSS in assay [2] (setting [3]) and 6.1 DSS in assay [2] (co-cultured fibroblast: WI38).
